In patent US12099068B2, “Biomarkers for graft-versus-host disease” (Incyte Corporation, priority 2018, dated 2024):
Values joined by “and” are separate entries in the source; they are usually repeats but may differ in a detail not shown here. Equal values may be shown once. Where no end group is shown, it is not given here.

Tests used:
Assay type in all cases: in vivo, human
plasma proteins [1] = assay: Proteins of Table 11 stably expressed in complete responders between days 1 and 28, Example 5 (Table 12); settings: between baseline (Day 1) and Day 28
Method: (§1) Due to the limited sample size, steroid-naive (N=10) and steroid-refractory (N=18) patients were combined for further analysis. Broad proteomic analysis of over 1000 proteins was conducted by OLINK Proteomics (Watertown, MA) using a proximity extension assay as described by the manufacturer. Data are presented as normalized protein expression (NPX) in log 2 scale. Statistical differences were evaluated using unpaired and paired t tests, one-way […] (ANOVA), and Pearson Correlation. Significance was conferred when P<0.05.

plasma proteins [2] = assay: Plasma proteins modulated between baseline and day 28 in responders (CR, VGPR, PR; n = 19), Example 6 (Table 13); settings: for Fold Change, Decreased Expression from Baseline to Day 28 / Fold Change, Increased Expression from Baseline to Day 28: plasma protein (OLINK NPX), responders (CR, VGPR, PR; n = 19), itacitinib 200 mg or 300 mg QD with corticosteroids, day 28 vs baseline
Method: as §1
Longitudinal differences in protein expression were analyzed by evaluating plasma samples from baseline/screening and day 28.

subjects with aGvHD = assay: Parallel-cohort phase 1 trial, clinical response by CIBMTR response criteria at day 28
Text: A broad proteomic analysis identified predictive, prognostic, and pharmacodynamic biomarkers of response to the combination treatment.
Ten steroid-naive and eighteen steroid-refractory subjects with aGvHD were enrolled in the clinical trial. Plasma samples were collected from all 28 subjects prior to treatment (screening/baseline) and at day 28 following treatment. All subjects provided written consent prior to enrollment and sample collection. Based on the Center for International Blood and Marrow Transplant Research (CIBMTR) response criteria at day 28, subjects were separated into responders and non-responders. Responders included complete responders (CR; n=10), very good partial responders (VGPR; n=1), and partial responders (PR; n=8). Non-responders included mixed responders (n=2) and progressive disease/death (PD/Death; n=7).
as §1

[3] = responders (CR, VGPR, PR; N=19), baseline to day 28

Molecule	Fold Change, Decreased Expression from Baseline to Day 28 (plasma proteins [2])	Fold Change, Increased Expression from Baseline to Day 28 (plasma proteins [2])	also measured
N#CCC1(n2cc(-c3ncnc4[nH]ccc34)cn2)CN(C2CCN(C(=O)c3ccnc(C(F)(F)F)c3F)CC2)C1 [itacitinib, {1-{1-[3-Fluoro-2-(trifluoromethyl)isonicotinoyl]piperidin-4-yl}-3-[4-(7H-pyrrolo[2,3-d]pyrimidin-4-yl)-1H-pyrazol-1-yl]azetidin-3-yl}acetonitrile]			proteins from Table 11 that did not modulate in complete responders (plasma proteins [1]): 89; proteins significantly elevated (plasma proteins [2]; [3]): 105; proteins significantly reduced (plasma proteins [2]; [3]): 248; total proteins significantly modulated by treatment (plasma proteins [2]; [3]): 353; Clinical response between the two itacitinib doses (subjects with aGvHD; 200 mg vs 300 mg once daily (QD) + corticosteroids): not significantly different; overall responses (subjects with aGvHD; combination with corticosteroids, steroid naïve and refractory aGvHD patients): improved overall responses
ADGRG1	−1.1823		
ADM		1.2035	
ANXA11	−1.3456		
APP	−1.5208		
ARHGEF12	−1.8347		
ARSB	−1.3432		
AXIN1	−1.8046		
CA13	−1.8816		
CBL	−1.7183		
CCL11		1.2818 and 1.3146	
CD27	−1.6873		
CD38	−1.4181		
CLEC1B	−1.7033		
COL4A1	−1.2699		
CXCL5	−1.7254		
DECR1	−1.4327		
DEFA1	−1.9173		
DKN1A	−1.4302		
DNAJB1	−1.7332		
DSC2	−1.3652		

Molecule	Fold Change, Decreased Expression from Baseline to Day 28 (plasma proteins [2])	Fold Change, Increased Expression from Baseline to Day 28 (plasma proteins [2])	also measured
EIF4G1	−1.5969		
ERBB2		1.1968	
EZR		1.1031	
FABP2		3.5893	
FGR	−1.4406		
FKBP1B	−1.9994		
FURIN		1.2365	
GAL (GWTLNSAGYLLGPHAVGNHRSFSDKNGLTS; Galanin; UniProt P22466 33-62, looked up)		1.6888	
GCG		1.8922	
Gal-3		1.3504	
HAVCR2	−1.312		
HDGF	−1.3392		
HGF	−1.5542		
IGF1R		1.2432	
IGF2R		1.1734	
IL6		2.0047 and 1.8649 and 1.7278	
IQGAP2	−1.5317		
ITGB2	−1.6877		
LILRA5	−1.342		
LTBP2		1.1874	
LY75	−1.1401		

Molecule	Fold Change, Decreased Expression from Baseline to Day 28 (plasma proteins [2])	Fold Change, Increased Expression from Baseline to Day 28 (plasma proteins [2])	also measured
MAP4K5	−1.658		
MAX	−1.449		
MCP-1		1.6302 and 1.4322	
METRNL		1.2013	
MMP7		1.3986	
MMP-1	−1.4112		
MUC-16		1.6356	
NCAM1		1.3216	
NCR1	−1.3726		
NEMO	−1.7984		
NMNAT1	−1.4212		
NRP1	−1.1237		
NTRK2		1.118	
NTRK3		1.2526	
PAPPA	−1.3491		
PDGF subunit A	−1.6021		
PECAM-1	−1.2009		
PIgR		1.1476	
PLXNA4	−1.405		
PPP1R9B	−1.6445		
PPY (APLEPVYPGDNATPEQMAQYAADLRRYINMLTRPRY; ends and bridges not checked; UniProt P01298 30-65, looked up)		1.9703	

Molecule	Fold Change, Decreased Expression from Baseline to Day 28 (plasma proteins [2])	Fold Change, Increased Expression from Baseline to Day 28 (plasma proteins [2])	also measured
PTX3	−1.5567		
PXN	−1.329		
SCARA5		1.1342	
SCF		1.4714 and 1.3943 and 1.4058	
SIGLEC1	−1.3842		
STIP1	−1.2812		
Siglec-9	−1.1514		
THBS2		1.0963	
THBS4	−1.7307		
THPO		1.867	
TIMP1	−1.2337		
TNC	−1.6915		
TNXB	−1.156		
TOP2B	−1.7634		
TPSAB1	−1.9835		
TRIM5	−1.4743		
TXNDC5	−1.4081		
VSIG4	−1.5046		
YES1	−1.9824		
